According to patent US12059400B2, “Medical compound” (VERA SALUS RICERCA S.R.L., priority 2017, dated 2024):
Each block holds one substance with its values, some of them ahead of it.

Columns and labels:
SCC cells (A431) = assay: Cell proliferation, crystal violet method; type: cell-based, human; conditions: for A431 cell growth vs vehicle control: 90 μM, FIG. 2a, 2b; for IC50: crystal violet, spectrophotometer, read-out: IC50 anti-proliferative effect, SCC (A431)
Experimental: The compound according to the invention, and in particular the synthetic quercetin derivatives described and illustrated herein were investigated in vitro by using human tumour cells and assessing their impact on the tumour proliferative capacity, with regard to the tumours described above. In particular, the following human tumour cell lines were assessed experimentally: 1) HCT116, colon adenocarcinoma cells; 2) H1299, lung adenocarcinoma cells; 3) A375, melanoma cells, and 4) A431, squamous skin cell carcinoma; 5) 786-0, renal carcinoma cells; 6) PC3, prostate carcinoma cells; 7) BT549, mammary carcinoma cells; 8) CAL27, tongue carcinoma cells (belonging to the head-and-neck carcinomas); 9) HepG2, hepatocellular carcinoma cells; 10) PANC-1, pancreas carcinoma cells; 11) T24, bladder carcinoma cells; 12) OVCAR-3, ovarian carcinoma cells. In addition, a normal human cell line, WS1 (skin fibroblasts) was also treated with the novel synthetic compounds. Cell proliferation was quantified by the crystal violet method with a spectrophotometer. In short, after acquiring serial images (0, 24 and 48 hrs) with the EVOS XL Cell Imaging System microscope (Thermo Fisher Scientific), the cells imaged at 48 hrs were fixed with paraformaldehyde (4%) and stained with Crystal Violet (1%). Then, the specific absorbance (λ=590 nm) at 48 hrs was measured with a spectrophotometer (Infinite®200 PRO, Tecan). Data analysis was carried out by using ad-hoc Excel files for graphical representation and statistical processing (t-test). Moreover, the results obtained with Crystal Violet were confirmed by using another cell proliferation assessment method based on the real time cellular analyzer XCELLigence RTCA DP (ACEA Biosciences, Inc.). This tool allows cell growth to be monitored from electrical impedance-derived quantitative values (the so-called Cell Index) measured by tiny electrodes located at the base of the culture wells. Proliferation is monitored for several days (5-7) by setting a Cell Index per minute measure on the instrument. The data are analysed by processing various parameters calculated by the dedicated software, such as the cell duplication time, the slope and the Max Cell Index. […] Cell proliferation was quantitated spectrophotometrically by the crystal violet method.

[1] = tested on: normal cells (human skin fibroblasts, WS1); assay: Apoptosis, acridine orange/ethidium bromide method; type: cell-based; conditions: 2 hrs; Compound 2 40 μM, 5 40 μM, 4 40 μM, 3 60 μM, 1 80 μM; FIG. 18
[2] = tested on: human colon (HCT116) tumour line; assay: Apoptosis, acridine orange/ethidium bromide method; type: cell-based; conditions: 2 hrs; Compound 2 50 μM, 5 40 μM, 4 40 μM, 3 60 μM, 1 60 μM; FIG. 18
Text: (§1) Tumour cell apoptosis was quantified by the acridine orange/ethidium bromide (AO/EB) method and by using a fluorescence microscope and image-J. In short, after treatment with the test compounds (2 hrs), the tumour cells were placed in contact with an AO/EB solution (in sterile H2O) and photographed with a fluorescence microscope (Leica) by using the ≥20× objective (so as to distinguish the morphology of cell nuclei). In this way, the living cells are labelled with AO and emit fluorescence in the green channel, while the necrotic cells, which have undergone the rupture of the plasma membrane, are permeable to EB and emit fluorescence in the red channel. In contrast, apoptotic cells are permeable to both AO and EB, and as a consequence of the colocalization of the two fluorescences appear yellow-orange when the two individual microscope-acquired fluorescences are superimposed by using the editing program Image J. The objective quantification of the colocalization areas (apoptotic cells) and the non-colocalization areas (living or necrotic cells) was carried out on a number of cells ≥300/condition through the use of Apoptosis Correlator (ImageJ plug-in) and shown as the percentage of living (green), necrotic (red) or apoptotic (yellow-orange) tumour cells. Data analysis was carried out by using GraphPad Prism 6 for graphical representation and statistical processing (2-way ANOVA test).

melanoma, A375 = assay: Apoptosis, acridine orange/ethidium bromide method; type: cell-based, human; conditions: 2 hrs; Compound 2 40 μM, 5 40 μM, 4 40 μM, 3 60 μM, 1 80 μM; FIG. 18
Text: as §1

[3] = tested on: human colon carcinoma cells (HCT116); assay: Intracellular ROS levels, DCFH2-DA probe; type: cell-based; conditions: for intracellular ROS levels in HCT116 cells: 2 hrs of treatment, at the respective anti-proliferative IC50s, DCF fluorescence in A.U., FIG. 22 left
Experimental: Intracellular ROS levels were measured in tumour cells by using the probe 2,7-dichlorodihydrofluorescein diacetate (DCFH2-DA) and a fluorescence spectrophotometer. DCFH2-DA diffuses readily through the cell membrane into the cytosolic space of the cell where it is hydrolyzed by intracellular esterases into the non-permeable DCFH2 product. DCFH2 oxidation by intracellular ROS (mainly H2O2, HO·, ROO·, NO· and ONOO) results in the production of intracellular fluorescent DCF, whose concentration is directly proportional to the levels of ROS in the cell. […] All the experiments were repeated at least 3 times. Data analysis was carried out with GraphPad Prism 6 for graphical representation and statistical processing (1-way ANOVA test).

[4] = tested on: human skin fibroblasts (WS1); assay: Cell proliferation of normal cells, crystal violet method; type: cell-based; conditions: at the indicated concentrations (not given); FIG. 17
Experimental: The compound according to the invention, and in particular the synthetic quercetin derivatives described and illustrated herein were investigated in vitro by using human tumour cells and assessing their impact on the tumour proliferative capacity, with regard to the tumours described above. In particular, the following human tumour cell lines were assessed experimentally: 1) HCT116, colon adenocarcinoma cells; 2) H1299, lung adenocarcinoma cells; 3) A375, melanoma cells, and 4) A431, squamous skin cell carcinoma; 5) 786-0, renal carcinoma cells; 6) PC3, prostate carcinoma cells; 7) BT549, mammary carcinoma cells; 8) CAL27, tongue carcinoma cells (belonging to the head-and-neck carcinomas); 9) HepG2, hepatocellular carcinoma cells; 10) PANC-1, pancreas carcinoma cells; 11) T24, bladder carcinoma cells; 12) OVCAR-3, ovarian carcinoma cells. In addition, a normal human cell line, WS1 (skin fibroblasts) was also treated with the novel synthetic compounds. Cell proliferation was quantified by the crystal violet method with a spectrophotometer. In short, after acquiring serial images (0, 24 and 48 hrs) with the EVOS XL Cell Imaging System microscope (Thermo Fisher Scientific), the cells imaged at 48 hrs were fixed with paraformaldehyde (4%) and stained with Crystal Violet (1%). Then, the specific absorbance (λ=590 nm) at 48 hrs was measured with a spectrophotometer (Infinite®200 PRO, Tecan). Data analysis was carried out by using ad-hoc Excel files for graphical representation and statistical processing (t-test). […] This tool allows cell growth to be monitored from electrical impedance-derived quantitative values (the so-called Cell Index) measured by tiny electrodes located at the base of the culture wells. Proliferation is monitored for several days (5-7) by setting a Cell Index per minute measure on the instrument. The data are analysed by processing various parameters calculated by the dedicated software, such as the cell duplication time, the slope and the Max Cell Index.

Substance: 2-(3,4-Dihydroxyphenyl)-3-hexadecyloxy-5,7-dihydroxy-4H-chromen-4-one [Compound 3]
intracellular ROS levels in HCT116 cells [3]: significantly raise
induction of apoptosis in normal cells WS1 [1]: not in normal cells
induction of apoptosis in HCT116 [2]: induced apoptosis
induction of apoptosis in A375 (melanoma, A375): induced apoptosis

Substance: 2-(3,4-Dihydroxyphenyl)-3-ethoxy-5,7-dihydroxy-4H-chromen-4-one [Compound 1]
intracellular ROS levels in HCT116 cells [3]: significantly raise
intracellular ROS levels in HCT116 cells after pretreatment with NAC ([3]; pretreatment with N-Acetyl-L-Cysteine 10 mM, FIG. 22 right): blocked
induction of apoptosis in normal cells WS1 [1]: not in normal cells
induction of apoptosis in HCT116 [2]: induced apoptosis
induction of apoptosis in A375 (melanoma, A375): induced apoptosis

More lines, main results first:

IC50 (SCC cells (A431)): 25.5 µM
Substance: 2-(3,4-dihydroxyphenyl)-5,7-dihydroxy-4-oxo-4H-chromen-3-yl palmitate [Compound 5]
A431 cell growth vs vehicle control (SCC cells (A431)): significantly inhibit
induction of apoptosis in normal cells WS1 [1]: not in normal cells
induction of apoptosis in HCT116 [2]: induced apoptosis
induction of apoptosis in A375 (melanoma, A375): induced apoptosis

IC50 (SCC cells (A431)): 31 µM
Substance: 2-(3,4-dihydroxyphenyl)-5,7-dihydroxy-4-oxo-4H-chromen-3-yl acetate [Compound 4]
A431 cell growth vs vehicle control (SCC cells (A431)): significantly inhibit
induction of apoptosis in normal cells WS1 [1]: not in normal cells
induction of apoptosis in HCT116 [2]: induced apoptosis
induction of apoptosis in A375 (melanoma, A375): induced apoptosis

IC50 (SCC cells (A431)): 40.3 µM
Substance: 2-(3,4-Dihydroxyphenyl)-3-hexyloxy-5,7-dihydroxy-4H-chromen-4-one [Compound 2]
intracellular ROS levels in HCT116 cells [3]: significantly raise
A431 cell growth vs vehicle control (SCC cells (A431)): significantly inhibit
proliferation of normal human skin fibroblasts (WS1) vs vehicle control [4]: do not disrupt
induction of apoptosis in normal cells WS1 [1]: not in normal cells
induction of apoptosis in HCT116 [2]: induced apoptosis
induction of apoptosis in A375 (melanoma, A375): induced apoptosis
